US8735375B2, “Therapeutic compositions” (Leo Laboratories Limited, priority 2005, dated 2014)

What was measured:
Type in all cases: physicochemical
[1] = Stability of I3A isoforms in the assay solvent systems over 72 h
Protocol: The stability of […] isoforms 'a', 'b' and 'c' in the three sample systems over 72 h (equivalent to the maximum possible length of time the samples might be held in the autosampler during a long HPLC analytical run) was confirmed as follows. Standards of the three isoforms of […] The standards were then each divided into three equal volumes and placed at 2-8° C., room temperature and 40° C. for 72 h and were then again analysed by HPLC.

[2] = Preliminary stability of I3A in fractionated coconut oil
Protocol: Approximately 10 mg of […] was accurately weighed into a 28 ml glass vial and added to approximately 200 mg of benzyl alcohol (exact weight noted), which had previously been filtered through a 0.22 μm MILLEX-GV filter. This mixture was periodically vortexed for approximately 2 h until the […] had dissolved in the benzyl alcohol. […] Aliquots of each formulation (placebo or active) were dispensed into 2 ml screw cap amber glass vials (borosilicate glass), sealed and stored at two storage conditions namely 2-8° C. and 25±2° C. […]

[3] = Dilution of I3A with normal saline (isoform conversion)
Source text: Oils may also be used in the present invention. The use of an emulsion based intralesional formulation has been reported for the treatment of psoriasis (Ho et al., 1990). Prior to administration, a vehicle, such as polyoxyethylated castor oil, is normally diluted with saline to form the emulsion. […] This conversion may be minimised if the administration time of the formulation is short.

[4] = Stability of I3A 'b' in isopropanol gel (pH 6.5); details: 0.02% (w/w) I3A 'b' in isopropanol gel pH 6.5; 2-8° C., RTP and 40° C.
Protocol: The stability of I3A ‘b’ in an isopropanol gel preparation (pH 6.5) was investigated. The protocol was as follows:
The Carbopol® was dispersed in the water and glycerin and dissolved by heating to 40° C. in a water bath. The propyl alcohol was then added to this solution. The cyclomethicone was dissolved in the isopropyl alcohol and this second solution was mixed well with the Carbopol® solution, and then water was added, with stirring, to 100%. The pH of the gel was brought to 6.5 with the dropwise addition of ethanolamine. The isopropanol gel was stored at 2-8° C. until use.
To investigate the stability of I3A ‘b’ in isopropanol gel (pH 6.5), a 0.02% (w/w) I3A ‘b’/Visopropanol gel formulation was prepared and divided into three samples for storage at 2-8° C., RTP and 40° C. At regular time points the samples were analysed in duplicate for the stability of I3A ‘b’ in terms of the formation of isoform ‘a’, with the results given in FIG. 2.

[5] = Kinetic solubility of I3A in 20% v/v ethanol/citrate buffer (pH 3.0); details: aqueous with cosolvent or surfactant or cyclodextrin, kinetic from dmso stock, 25° C.
[6] = Preliminary stability of I3A in receiver fluid 20% v/v ethanol/citrate buffer (pH 3.0); details: 37° C., after 18 h
Protocol: The receiver fluid employed to try and maintain sink conditions was 20% v/v ethanol/citrate buffer (pH 3.0) and this was incorporated into the Franz cell and stirred constantly with a magnetic stirrer. Preliminary stability studies were conducted on I3A in 20% v/v ethanol/citrate buffer (pH 3.0) at 37° C. over ca. 18 h. […] For the purpose of the Franz cell study this was considered acceptable.

[7] = Stability of I3A at various pH's (buffers); details: room temperature
Protocol: The stability of I3A was investigated at pH 4.5 in two buffers i.e. monopotassium phosphate/disodium phosphate and acetic acid/ammonium acetate for 24 h at room temperature.

Stability of I3A in DMSO = details: 10 days
Protocol: I3A was investigated for stability in DMSO at room temperature and at 37° C. over a 10 day time period. A control sample of I3A in acetonitrile was kept under the same conditions as the test sample. The samples were analysed by HPLC at the start of the experiment (Day 0), after 48 hours (Day 2) and again after 10 days.
The chromatographic conditions employed were as follows: […]

[8] = Acetonitrile/Citrate buffer (pH 3), 72 h 2-8° C.
[9] = Acetonitrile/Citrate buffer (pH 3), 72 h 40° C.
[10] = Acetonitrile/Citrate buffer (pH 3), 72 h RTP
[11] = Acetonitrile/Citrate buffer (pH 3), Time 0 h
[12] = Acetonitrile/Sodium acetate buffer (pH 4.5), 72 h 2-8° C.
[13] = Acetonitrile/Sodium acetate buffer (pH 4.5), 72 h 40° C.
[14] = Acetonitrile/Sodium acetate buffer (pH 4.5), 72 h RTP
[15] = Acetonitrile/Sodium acetate buffer (pH 4.5), Time 0 h

C/C=C(/C)C(=O)O[C@H]1C(C)=C[C@]23C(=O)[C@H](C=C(CO)[C@@H](O)[C@]12O)[C@H]1[C@@H](C[C@H]3C)C1(C)C [Formulation I3A, ingenol-3-angelate]
% ‘a’ ([1]; Acetonitrile, 72 h 2-8° C.): 3.94% | % ‘b’ ([1]; Acetonitrile, 72 h 2-8° C.): 95.45% | % ‘c’ ([1]; Acetonitrile, 72 h 2-8° C.): 0% | % ‘a’ ([1]; Acetonitrile, 72 h 40° C.): 15.52% | % ‘b’ ([1]; Acetonitrile, 72 h 40° C.): 83.35% | % ‘c’ ([1]; Acetonitrile, 72 h 40° C.): 0% | % ‘a’ ([1]; Acetonitrile, 72 h RTP): 5.83% | % ‘b’ ([1]; Acetonitrile, 72 h RTP): 93.51% | % ‘c’ ([1]; Acetonitrile, 72 h RTP): 0% | % ‘a’ ([1]; Acetonitrile, Time 0 h): 0.39% | % ‘b’ ([1]; Acetonitrile, Time 0 h): 99.27% | % ‘c’ ([1]; Acetonitrile, Time 0 h): 0% | % ‘a’ [1, 8]: 0.18% | % ‘b’ [1, 8]: 99.49% | % ‘c’ [1, 8]: 0% | % ‘a’ [1, 9]: 0.34% | % ‘b’ [1, 9]: 99.63% | % ‘c’ [1, 9]: 0% | % ‘a’ [1, 10]: 0.13% | % ‘b’ [1, 10]: 99.76% | % ‘c’ [1, 10]: 0% | % ‘a’ [1, 11]: 0.13% | % ‘b’ [1, 11]: 99.64% | % ‘c’ [1, 11]: 0% | % ‘a’ [1, 12]: 0.63% | % ‘b’ [1, 12]: 99.02% | % ‘c’ [1, 12]: 0% | % ‘a’ [1, 13]: 6.35% | % ‘b’ [1, 13]: 93.13% | % ‘c’ [1, 13]: 0% | % ‘a’ [1, 14]: 1.16% | % ‘b’ [1, 14]: 98.41% | % ‘c’ [1, 14]: 0% | % ‘a’ [1, 15]: 0.34% | % ‘b’ [1, 15]: 98.88% | % ‘c’ [1, 15]: 0.01% | % I3A ‘a’ (isoform ‘a’ as a percentage of isoform ‘a’ and I3A ‘b’) ([2]; 0.1% w/w I3A in fractionated coconut oil/2% benzyl alcohol, Time 0): 1.90% | % I3A ‘a’ ([2]; Fresh sample I3A in Acetonitrile at time 43 days): 2.14% | % I3A ‘a’ (isoform ‘a’ as a percentage of isoform ‘a’ and I3A ‘b’) ([2]; Fresh sample I3A in Acetonitrile at time zero): 2.50% | % I3A ‘a’ ([2]; I3A in fractionated coconut oil formulation, Time 5 days (2-8° C.)): 1.86% | % I3A ‘a’ ([2]; I3A in fractionated coconut oil formulation, Time 5 days (25° C.)): 1.97% | % I3A ‘a’ ([2]; I3A in fractionated coconut oil formulation, Time 20 days (2-8° C.)): 1.94% | % I3A ‘a’ ([2]; I3A in fractionated coconut oil formulation, Time 20 days (25° C.)): 1.93% | % I3A ‘a’ ([2]; I3A in fractionated coconut oil formulation, Time 28 days (2-8° C.)): 1.93% | % I3A ‘a’ ([2]; I3A in fractionated coconut oil formulation, Time 28 days (25° C.)): 1.94% | % I3A ‘a’ ([2]; I3A in fractionated coconut oil formulation, Time 43 days (2-8° C.)): 1.95% | % I3A ‘a’ ([2]; I3A in fractionated coconut oil formulation, Time 43 days (25° C.)): 1.91% | change in percentage of isoform ‘a’ during storage ([2]; I3A in fractionated coconut oil, 2-8 and 25° C., 43 days): no increase in the percentage of isoform ‘a’ | conversion of isoform 'b' to 'a' [3]: increases the conversion of isoform ‘b’ to ‘a’ | stability in terms of the formation of isoform 'a' [4]: rearranges to isoform ‘a’ and subsequently isoform ‘c’ | solubility kinetic [5]: 509.7 ± 3 µg/mL | percentage peak area increase in isoform ‘a’ [6]: 0.26% | stability (predominance of isoform 'b') ([7]; pH 4.5, monopotassium phosphate/disodium phosphate and acetic acid/ammonium acetate buffers, 24 h): stable | stability ([7]; pH 5.5, 6.5 and 7.0, 14 days): decrease with an increase in pH | stability (Stability of I3A in DMSO; 37° C.): stable | stability (Stability of I3A in DMSO; room temperature): stable
